Source: patent publication EP4707280A1, “1,4-CINEOLE DERIVATIVE AND INTERMEDIATE THEREOF, HERBICIDE CONTAINING SAID DERIVATIVE AS ACTIVE INGREDIENT, METHOD FOR USING HERBICIDE, AND METHOD FOR PREPARING AGROCHEMICAL COMPOSITION” (HOKKO CHEMICAL INDUSTRY CO., LTD., priority 2023, dated 2024)

Columns and labels:
Type in all cases: in vivo
Echinochloa crus-galli [1] = assay: Test Example 4: herbicidal effect test by stem and leaf treatment in upland field; conditions: Echinochloa crus-galli; 120 g per 10 ares; sprayed seven days after sowing, upland soil; 14 days after application; read-out: weed inhibition rate
Echinochloa crus-galli [2] = assay: Test Example 7: herbicidal effect test by soil application in upland field (low dose); conditions: Echinochloa crus-galli, 7.5 g per 10 ares, sprayed one day after sowing, 14 days after application, read-out: weed inhibition rate
Procedure, shortened: (§1)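 Pre-emergence soil application: upland alluvial loam pots sown with weed seeds mixed into the top 1 cm; one day after sowing, a water-diluted emulsifiable concentrate was sprayed on the soil at 100 L per 10 a, delivering 7.5 g active ingredient per 10 a. Weed inhibition rate (%) scored 14 days after application, duplicate pots.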

Digitaria ciliaris [3] = assay: as above; conditions: Digitaria ciliaris, 7.5 g per 10 ares, sprayed one day after sowing, 14 days after application, read-out: weed inhibition rate
Procedure, shortened: as §1

[4] = tested on: Echinochloa crus-galli var. formosensis; assay: Test Example 6: herbicidal effect test by application during growth period of paddy rice (low dose); conditions: Echinochloa crus-galli; 7.5 g per 10 ares; applied seven days after sowing, flooded pots; 14 days after application; read-out: weed inhibition rate
Procedure, shortened: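 Emulsifiable concentrate, water-diluted, dropped onto flooded paddy pots 7 days post-sowing at 7.5 g active ingredient/10 a. Greenhouse-grown weeds; percent inhibition scored at day 14 after treatment.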

Digitaria ciliaris [5] = assay: Test Example 4: herbicidal effect test by stem and leaf treatment in upland field; conditions: Digitaria ciliaris; 120 g per 10 ares; sprayed seven days after sowing, upland soil; 14 days after application; read-out: weed inhibition rate
Scirpus juncoides [6] = assay: Test Example 2: herbicidal effect test by application during growth period of paddy rice; conditions: Schoenoplectiella juncoides; 120 g per 10 ares; applied seven days after sowing, flooded pots; 14 days after application; read-out: weed inhibition rate
Procedure, shortened: (§2)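 Paddy soil in Wagner pots was puddled with N:P:K 16:16:16 fertilizer, sown with 30 weed seeds per species at 0–1 cm and flooded to about 3 cm. Seven days after sowing, a water-diluted emulsifiable concentrate was dropped onto the water at 120 g active ingredient per 10 ares. Weed inhibition (%) was scored at 14 days, in duplicate.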

[7] = tested on: Echinochloa crus-galli var. formosensis; assay: as above; conditions: Echinochloa crus-galli; 120 g per 10 ares; applied seven days after sowing, flooded pots; 14 days after application; read-out: weed inhibition rate
Procedure, shortened: as §2

Echinochloa crus-galli [8] = assay: Test Example 3: herbicidal effect test by soil application in upland field; conditions: Echinochloa crus-galli, 120 g per 10 ares, sprayed one day after sowing, 14 days after application, read-out: weed inhibition rate
Procedure, shortened: (§3)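 Weed inhibition (%) was assessed 14 days after treatment, in duplicate per concentration group. Seeds had been mixed into the upper 1 cm of upland alluvial loam, and the soil surface was sprayed one day later with the diluted emulsifiable concentrate at 120 g active ingredient per 10 ares.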

Digitaria ciliaris [9] = assay: as above; conditions: Digitaria ciliaris, 120 g per 10 ares, sprayed one day after sowing, 14 days after application, read-out: weed inhibition rate
Procedure, shortened: as §3

Echinochloa crus-galli [10] = assay: Test Example 8: herbicidal effect test by stem and leaf treatment in upland field (low dose); conditions: Echinochloa crus-galli; 7.5 g per 10 ares; sprayed seven days after sowing, upland soil; 14 days after application; read-out: weed inhibition rate
Digitaria ciliaris [11] = assay: as above; conditions: Digitaria ciliaris; 7.5 g per 10 ares; sprayed seven days after sowing, upland soil; 14 days after application; read-out: weed inhibition rate
Scirpus juncoides [12] = assay: Test Example 1: herbicidal effect test by soil application in paddy rice; conditions: Schoenoplectiella juncoides, soil, 336 h; 120 g active ingredient per 10 ares; applied immediately after sowing, flooded pots; 14 days after application; read-out: weed inhibition rate
Procedure, shortened: (§4)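 Flooded-pot paddy assay: sow at 0–1 cm, flood to about 3 cm, then apply diluted emulsifiable concentrate by dropper, 120 g a.i. per 10 ares; greenhouse-grown.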

[13] = tested on: Echinochloa crus-galli var. formosensis; assay: as above; conditions: Echinochloa crus-galli, soil, 336 h; 120 g active ingredient per 10 ares; applied immediately after sowing, flooded pots; 14 days after application; read-out: weed inhibition rate
Procedure, shortened: as §4

[14] = tested on: Echinochloa crus-galli var. formosensis; assay: Test Example 5: herbicidal effect test by soil application in paddy rice (low dose); conditions: Echinochloa crus-galli, soil, 336 h; 7.5 g per 10 ares; applied immediately after sowing, flooded pots; 14 days after application; read-out: weed inhibition rate
Procedure, shortened: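 Paddy soil in Wagner pots was fertilized (N:P:K 16:16:16), puddled, sown with 30 seeds per weed species at 0–1 cm, then flooded to ~3 cm in a glass greenhouse. Emulsifiable concentrate diluted in water was dropper-applied into floodwater immediately, at 7.5 g active ingredient per 10 ares; duplicates, scored at 14 days.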

CC(C)[C@]12C[C@@H](OCc3c(F)cccc3Br)[C@](C)(C[C@@H]1Cl)O2 [1-1613, (1R,2S,4S,5R)-5-[(2-bromo-6-fluoro-phenyl)methoxy]-2-chloro-1-isopropyl-4-methyl-7-oxabicyclo[2.2.1]heptane]
≥ 80%: inhibition at 1200 g/ha (Echinochloa crus-galli [1]) | inhibition at 75 g/ha (Echinochloa crus-galli [2]) | inhibition at 75 g/ha (Digitaria ciliaris [3]) | inhibition at 75 g/ha [4] | inhibition at 1200 g/ha (Digitaria ciliaris [5]) | inhibition at 1200 g/ha (Scirpus juncoides [6]) | inhibition at 1200 g/ha [7] | inhibition at 1200 g/ha (Echinochloa crus-galli [8]) | inhibition at 1200 g/ha (Digitaria ciliaris [9]) | inhibition at 75 g/ha (Echinochloa crus-galli [10]) | inhibition at 75 g/ha (Digitaria ciliaris [11]) | pest or weed control at 1200 g/ha (Scirpus juncoides [12]) | pest or weed control at 1200 g/ha [13] | inhibition at 75 g/ha [14]

CC(C)[C@]12C[C@@H](OCc3c(Cl)cccc3Cl)[C@](C)(C[C@@H]1Cl)O2 [1-652, (1R,2S,4S,5R)-2-chloro-5-[(2,6-dichlorophenyl)methoxy]-1-isopropyl-4-methyl-7-oxabicyclo[2.2.1]heptane]
≥ 80%: inhibition at 1200 g/ha (Echinochloa crus-galli [1]) | inhibition at 75 g/ha (Echinochloa crus-galli [2]) | inhibition at 75 g/ha (Digitaria ciliaris [3]) | inhibition at 75 g/ha [4] | inhibition at 1200 g/ha (Digitaria ciliaris [5]) | inhibition at 1200 g/ha (Scirpus juncoides [6]) | inhibition at 1200 g/ha [7] | inhibition at 1200 g/ha (Echinochloa crus-galli [8]) | inhibition at 1200 g/ha (Digitaria ciliaris [9]) | inhibition at 75 g/ha (Echinochloa crus-galli [10]) | inhibition at 75 g/ha (Digitaria ciliaris [11]) | pest or weed control at 1200 g/ha (Scirpus juncoides [12]) | pest or weed control at 1200 g/ha [13] | inhibition at 75 g/ha [14]

CC(C)C12CC(OCc3cccs3)C(C)(CC1Br)O2 (stereo not shown) [1-1389, 5-bromo-1-methyl-4-isopropyl-2-(thiophen-2-ylmethoxy)-7-oxabicyclo[2.2.1]heptane]
≥ 80%: inhibition at 1200 g/ha (Echinochloa crus-galli [1]) | inhibition at 75 g/ha (Echinochloa crus-galli [2]) | inhibition at 75 g/ha (Digitaria ciliaris [3]) | inhibition at 75 g/ha [4] | inhibition at 1200 g/ha (Digitaria ciliaris [5]) | inhibition at 1200 g/ha (Scirpus juncoides [6]) | inhibition at 1200 g/ha [7] | inhibition at 1200 g/ha (Echinochloa crus-galli [8]) | inhibition at 1200 g/ha (Digitaria ciliaris [9]) | inhibition at 75 g/ha (Echinochloa crus-galli [10]) | inhibition at 75 g/ha (Digitaria ciliaris [11]) | pest or weed control at 1200 g/ha (Scirpus juncoides [12]) | pest or weed control at 1200 g/ha [13] | inhibition at 75 g/ha [14]

CC(C)=CCOC1CC2(C(C)C)OC1(C)CC2Br (stereo not shown) [1-1334, 5-bromo-1-methyl-2-(3-methylbut-2-enoxy)-4-isopropyl-7-oxabicyclo[2.2.1]heptane]
≥ 80%: inhibition at 1200 g/ha (Echinochloa crus-galli [1]) | inhibition at 75 g/ha (Echinochloa crus-galli [2]) | inhibition at 75 g/ha (Digitaria ciliaris [3]) | inhibition at 75 g/ha [4] | inhibition at 1200 g/ha (Digitaria ciliaris [5]) | inhibition at 1200 g/ha (Scirpus juncoides [6]) | inhibition at 1200 g/ha [7] | inhibition at 1200 g/ha (Echinochloa crus-galli [8]) | inhibition at 1200 g/ha (Digitaria ciliaris [9]) | inhibition at 75 g/ha (Echinochloa crus-galli [10]) | inhibition at 75 g/ha (Digitaria ciliaris [11]) | pest or weed control at 1200 g/ha (Scirpus juncoides [12]) | pest or weed control at 1200 g/ha [13] | inhibition at 75 g/ha [14]

CC(C)C12CC(OCc3c(F)cccc3F)C(C)(CC1I)O2 (stereo not shown) [1-1446, 5-[(2,6-difluorophenyl)methoxy]-2-iodo-1-isopropyl-4-methyl-7-oxabicyclo[2.2.1]heptane]
≥ 80%: inhibition at 1200 g/ha (Echinochloa crus-galli [1]) | inhibition at 75 g/ha (Echinochloa crus-galli [2]) | inhibition at 75 g/ha (Digitaria ciliaris [3]) | inhibition at 75 g/ha [4] | inhibition at 1200 g/ha (Digitaria ciliaris [5]) | inhibition at 1200 g/ha (Scirpus juncoides [6]) | inhibition at 1200 g/ha [7] | inhibition at 1200 g/ha (Echinochloa crus-galli [8]) | inhibition at 1200 g/ha (Digitaria ciliaris [9]) | inhibition at 75 g/ha (Echinochloa crus-galli [10]) | inhibition at 75 g/ha (Digitaria ciliaris [11]) | pest or weed control at 1200 g/ha (Scirpus juncoides [12]) | pest or weed control at 1200 g/ha [13] | inhibition at 75 g/ha [14]

COc1ccccc1COC1CC2(C(C)C)OC1(C)CC2I (stereo not shown) [1-1415, 5-iodo-2-[(2-methoxyphenyl)methoxy]-1-methyl-4-isopropyl-7-oxabicyclo[2.2.1]heptane]
≥ 80%: inhibition at 1200 g/ha (Echinochloa crus-galli [1]) | inhibition at 75 g/ha (Echinochloa crus-galli [2]) | inhibition at 75 g/ha (Digitaria ciliaris [3]) | inhibition at 75 g/ha [4] | inhibition at 1200 g/ha (Digitaria ciliaris [5]) | inhibition at 1200 g/ha (Scirpus juncoides [6]) | inhibition at 1200 g/ha [7] | inhibition at 1200 g/ha (Echinochloa crus-galli [8]) | inhibition at 1200 g/ha (Digitaria ciliaris [9]) | inhibition at 75 g/ha (Echinochloa crus-galli [10]) | inhibition at 75 g/ha (Digitaria ciliaris [11]) | pest or weed control at 1200 g/ha (Scirpus juncoides [12]) | pest or weed control at 1200 g/ha [13] | inhibition at 75 g/ha [14]

CC(C)C12CC(OCc3ccccc3C#N)C(C)(CC1Cl)O2 (stereo not shown) [1-1304, 2-[(5-chloro-1-methyl-4-isopropyl-7-oxabicyclo[2.2.1]heptan-2-yl)oxymethyl]benzonitrile]
≥ 80%: inhibition at 1200 g/ha (Echinochloa crus-galli [1]) | inhibition at 75 g/ha (Echinochloa crus-galli [2]) | inhibition at 75 g/ha (Digitaria ciliaris [3]) | inhibition at 75 g/ha [4] | inhibition at 1200 g/ha (Digitaria ciliaris [5]) | inhibition at 1200 g/ha (Scirpus juncoides [6]) | inhibition at 1200 g/ha [7] | inhibition at 1200 g/ha (Echinochloa crus-galli [8]) | inhibition at 1200 g/ha (Digitaria ciliaris [9]) | inhibition at 75 g/ha (Echinochloa crus-galli [10]) | inhibition at 75 g/ha (Digitaria ciliaris [11]) | pest or weed control at 1200 g/ha (Scirpus juncoides [12]) | pest or weed control at 1200 g/ha [13] | inhibition at 75 g/ha [14]

CC(C)=CCO[C@@H]1C[C@]2(C(C)C)O[C@@]1(C)C[C@@H]2I [1-732, (1R,2S,4S,5R)-2-iodo-1-isopropyl-4-methyl-5-(3-methylbut-2-enoxy)-7-oxabicyclo[2.2.1]heptane]
≥ 80%: inhibition at 1200 g/ha (Echinochloa crus-galli [1]) | inhibition at 75 g/ha (Echinochloa crus-galli [2]) | inhibition at 75 g/ha (Digitaria ciliaris [3]) | inhibition at 75 g/ha [4] | inhibition at 1200 g/ha (Digitaria ciliaris [5]) | inhibition at 1200 g/ha (Scirpus juncoides [6]) | inhibition at 1200 g/ha [7] | inhibition at 1200 g/ha (Echinochloa crus-galli [8]) | inhibition at 1200 g/ha (Digitaria ciliaris [9]) | inhibition at 75 g/ha (Echinochloa crus-galli [10]) | inhibition at 75 g/ha (Digitaria ciliaris [11]) | pest or weed control at 1200 g/ha (Scirpus juncoides [12]) | pest or weed control at 1200 g/ha [13] | inhibition at 75 g/ha [14]
